Usually DC50 stands for the concentration giving 50% degradation. For orientation: IC50 means the midpoint of a concentration-inhibition curve.

One assay deals with IRAK4 (Homo sapiens (Human), UniProt Q9NWZ3). Put plainly: IRAK4 MSD degradation in OCI-LY10. In kind it is cell-based. In a few lines: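 OCI-LY10 cells treated with 8-point 1:3 dilutions (top 1 to 10 μM final) for 4 to 24 h at 37° C. Lysate IRAK4 measured by MSD sandwich immunoassay (2H9 capture, Y279 detection, SULFO-TAG anti-rabbit). DC50 from three-parameter logistic fit.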

The test system of another assay is OCI-LY10. As to the kind of experiment: CTG Cell Viability Assay - OCI-LY10. Conditions: Homo sapiens, OCI-Ly10, 96 h, OCI-LY10, 4 days; read-out: CTG Cell Viability Assay - OCI-LY10: Average external-IC50. The format is cell-based, human. An outline of the steps: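 OCI-LY10 cells exposed to 9-dose, 1:3 dilutions from 10 μM top (0.2% DMSO) for 4 days at 37° C, 5% CO2. Viability by CellTiter-Glo luminescence; IC50 from three-parameter logistic fit.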

[1] abbreviates: OCI-LY10, 4 hrs, MSD, read-out: IRAK4 MSD degradation in OCI-LY10 at 4 hrs: Average external-Abs DC50.
[2] abbreviates: OCI-LY10, 24 hrs, MSD, read-out: IRAK4 MSD degradation in OCI-LY10 at 24 hrs: Average external-Abs DC50.
Where [3] appears, read: OCI-LY10, 4 hrs, read-out: IRAK4 MSD degradation in OCI-LY10 at 4 hrs: DC50.
Where [4] appears, read: OCI-LY10, 24 hrs, read-out: IRAK4 MSD degradation in OCI-LY10 at 24 hrs: DC50.

Where two headings read alike, the source gives them in different places.

Sequence of IRAK4 (Q9NWZ3 whole entry): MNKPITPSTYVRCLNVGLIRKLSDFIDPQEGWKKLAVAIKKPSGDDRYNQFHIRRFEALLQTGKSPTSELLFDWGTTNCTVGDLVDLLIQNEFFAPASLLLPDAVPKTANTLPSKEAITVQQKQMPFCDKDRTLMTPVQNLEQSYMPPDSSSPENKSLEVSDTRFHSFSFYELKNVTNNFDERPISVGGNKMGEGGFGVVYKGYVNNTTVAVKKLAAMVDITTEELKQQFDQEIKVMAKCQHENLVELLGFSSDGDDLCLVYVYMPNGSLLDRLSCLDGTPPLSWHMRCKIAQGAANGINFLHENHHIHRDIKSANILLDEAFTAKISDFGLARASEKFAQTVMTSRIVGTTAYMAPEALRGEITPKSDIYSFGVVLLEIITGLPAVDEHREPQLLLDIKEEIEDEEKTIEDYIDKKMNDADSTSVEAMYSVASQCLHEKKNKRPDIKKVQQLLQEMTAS

On to `CC[C@@H]1[C@H](F)C(=O)N[C@@H]1COc1ncc(C#C[C@H]2CC[C@H](CN3CCC(OCCC#Cc4ccc([C@H]5CN(C6CCC(=O)NC6=O)C(=O)O5)cc4)CC3)CC2)c2cc(C(N)=O)c(OC)cc12` (some centres unmarked) [I-206], for which the DC50 at IRAK4 (setting [1]) and on IRAK4 (setting [2]) was 10 to 100 nM throughout. Moreover, in the assay with OCI-LY10, the half-maximal inhibitory concentration (IC50) was greater than 1000 nM.
For `CC[C@@H]1[C@H](F)C(=O)N[C@@H]1COc1ncc(C#CC2CCN(CC3CCN(Cc4cccc5c4n(C)c(=O)n5C4CCC(=O)NC4=O)CC3)CC2)c2cc(C(N)=O)c(OC)cc12` (some centres unmarked) [I-194], the DC50 on IRAK4 (setting [1]) is 10 to 100 nM. In addition, the IC50 in the assay with OCI-LY10 was greater than 1000 nM.
In the case of `CN(C[C@H]1CC[C@H](n2cc(NC(=O)c3cnn4ccc(N5C[C@H]6C[C@@H]5CO6)nc34)c(C(F)F)n2)CC1)[C@H]1CC[C@H](Nc2cccc3c2C(=O)N(C2CCC(=O)NC2=O)C3=O)CC1` (some centres unmarked) [I-463], the DC50 at IRAK4 (setting [3]) was 10 to 100 nM; on IRAK4 (setting [4]), less than 10 nM. For the same compound, the IC50 in the assay with OCI-LY10 lay within 100 to 500 nM.
`CN(CC1CCN(c2cccc3c2C(=O)N(C2CCC(=O)NC2=O)C3=O)CC1)C[C@H]1CC[C@H](n2cc(NC(=O)c3cnn4ccc(N5CCOCC5)nc34)c(C(F)F)n2)CC1` (some centres unmarked) [I-220]: the DC50 at IRAK4 (setting [1]) is greater than 1000 nM; on IRAK4 (setting [2]), 100 to 1000 nM. The half-inhibitory concentration (IC50) in the assay on OCI-LY10 was greater than 1000 nM.
Take `CN(CCN1CCO[C@@H](CNc2cccc3c2C(=O)N(C2CCC(=O)NC2=O)C3=O)C1)C[C@H]1CC[C@H](n2cc(NC(=O)c3cnn4ccc(N5C[C@H]6C[C@@H]5CO6)nc34)c(C(F)F)n2)CC1` (some centres unmarked) [I-500]: the DC50 is 100 to 1000 nM at IRAK4 (setting [3]) and 10 to 100 nM on IRAK4 (setting [4]). In the assay on OCI-LY10, the half-maximal inhibitory concentration (IC50) lay in the range of 50 to 100 nM.
As to `CN1C(=O)CCC(N2C(=O)c3cccc(NCCCOC4CCN(C[C@H]5CC[C@H](n6cc(NC(=O)c7cnn8ccc(N9CCOCC9)nc78)c(C(F)F)n6)CC5)CC4)c3C2=O)C1=O` (some centres unmarked) [I-368], the DC50 on IRAK4 (setting [1]) was greater than 1000 nM. Besides, in the assay with OCI-LY10, the IC50 was greater than 1000 nM.
On to `CC[C@H]1C(COc2ncc(C#C[C@H]3CC[C@H](CN4CCC(OCCCc5cccc6c5c5cccnc5n6C5CCC(=O)NC5=O)CC4)CC3)c3cc(C(N)=O)c(OC)cc23)NC(=O)[C@H]1F` (some centres unmarked) [I-205], for which the DC50 on IRAK4 (setting [1]) is 100 to 1000 nM; at IRAK4 (setting [2]), 10 to 100 nM. The 50% inhibitory concentration (IC50) with OCI-LY10 is greater than 1000 nM.
As to `Cc1c[nH]c2ncnc(N[C@H]3CC[C@H](N4CCN(C(=O)COCCOCCOCCOCCCc5ccc6c(c5)n(C)c(=O)n6C5CCC(=O)NC5=O)CC4)CC3)c12` (some centres unmarked) [I-26], the 50% degradation concentration (DC50) on IRAK4 (setting [1]) and at IRAK4 (setting [2]) was greater than 1000 nM throughout. The IC50 in the assay on OCI-LY10 was greater than 1000 nM.
As for `O=C1CCC(N2C(=O)c3cccc(OCCCOC4CCN(C[C@H]5CC[C@H](n6cc(NC(=O)c7cnn8ccc(N9CCOCC9)nc78)c(C(F)F)n6)CC5)CC4)c3C2=O)C(=O)N1` (some centres unmarked) [I-209], the DC50 at IRAK4 (setting [1]) is 10 to 100 nM; on IRAK4 (setting [2]), less than 10 nM. Further, in the assay with OCI-LY10, the IC50 is greater than 1000 nM.
Take `CC[C@@H]1[C@H](F)C(=O)N[C@@H]1COc1ncc(C#C[C@H]2CC[C@H](CN3CCC(OCCNc4cccc5c4C(=O)N(C4CCC(=O)NC4=O)C5=O)CC3)CC2)c2cc(C(N)=O)c(OC)cc12` (some centres unmarked) [I-386]: the half-maximal degradation concentration (DC50) is 100 to 1000 nM at IRAK4 (setting [1]) and 10 to 100 nM at IRAK4 (setting [2]). For the same compound, in the assay on OCI-LY10, the IC50 is less than 50 nM.
For the compound `Cc1ccc(-n2nc(C3CCN(CCCCCOCCCc4cccc5c4n(C)c(=O)n5C4CCC(=O)NC4=O)CC3)cc2NC(=O)c2cnn3cccnc23)nc1` (centres unmarked) [I-272], the 50% degradation concentration (DC50) at IRAK4 (setting [1]) and at IRAK4 (setting [2]) was greater than 1000 nM throughout. In the assay on OCI-LY10, the half-inhibitory concentration (IC50) is greater than 1000 nM.
With `CN1C(=O)C(C2CCC(=O)NC2=O)c2cccc(CCCOC3CCN(C[C@H]4CC[C@H](n5cc(NC(=O)c6cnn7ccc(N8CCC(C)(O)CC8)nc67)c(C(F)F)n5)CC4)CC3)c21` (some centres unmarked) [I-286], the DC50 at IRAK4 (setting [1]) lay in the range of 10 to 100 nM. Also, the IC50 with OCI-LY10 was greater than 1000 nM.
As to `CC[C@@H]1CC(=O)N[C@@H]1COc1ncc(C#C[C@H]2CC[C@@H](CN(C)CCCOCCCc3cccc4c3n(C)c(=O)n4C3CCC(=O)NC3=O)CC2)c2cc(C(N)=O)c(OC)cc12` (some centres unmarked) [I-201], the half-maximal degradation concentration (DC50) at IRAK4 (setting [1]) was greater than 1000 nM; on IRAK4 (setting [2]) it was 100 to 1000 nM. Also, the IC50 in the assay on OCI-LY10 is greater than 1000 nM.
As for `CC[C@@H]1[C@H](F)C(=O)N[C@@H]1COc1ncc(C#C[C@H]2CC[C@H](CN)CC2)c2cc(C(N)=O)c(OC)cc12` [I-314, 4-[2-[4-(Aminomethyl)cyclohexyl]ethynyl]-1-[[(2S,3S,4S)-3-ethyl-4-fluoro-5-oxo-pyrrolidin-2-yl]methoxy]-7-methoxy-isoquinoline-6-carboxamide], the DC50 on IRAK4 (setting [1]) and on IRAK4 (setting [2]) was greater than 1000 nM in each case. Also, the concentration for half-maximal inhibition (IC50) with OCI-LY10 is greater than 1000 nM.
Take `O=C1CCC(N2C[C@@H](c3ccc(C#CCCOC4CCN(C[C@H]5CC[C@H](n6cc(NC(=O)C7CNN8C=CC(N9CCOCC9)=NC78)c(C(F)F)n6)CC5)CC4)cc3)OC2=O)C(=O)N1` (some centres unmarked) [I-197]: the half-maximal degradation concentration (DC50) on IRAK4 (setting [1]) fell in the range of 10 to 100 nM. Also, the 50% inhibitory concentration (IC50) in the assay with OCI-LY10 was greater than 1000 nM.

The values are drawn from patent US11352350B2, “IRAK degraders and uses thereof” (Kymera Therapeutics, Inc., priority 2018, dated 2022).
